≈ marks a conversion by molar mass, not a printed value.
Assays:
Rattus norvegicus = assay: Antiinflammatory activity in rat assessed as inhibition of carrageenan-induced paw edema at 25 to 200 mg/kg, po administered 1 hr before carrageenan challenge measured at 6 hrs; format: functional; set-up: scale not given: the % may be the effect or the level left; settings: dose mg/kg 25-200
Escherichia coli = assay: Antibacterial activity against Escherichia coli MTCC 443 assessed as growth inhibition at 100 ug/ml by agar well diffusion method; format: functional; settings: read-out: GI
Pseudomonas aeruginosa = assay: Antibacterial activity against Pseudomonas aeruginosa MTCC 741 assessed as growth inhibition at 100 ug/ml by agar well diffusion method; format: functional; settings: read-out: GI
[1] = system: Staphylococcus epidermidis; assay: Antibacterial activity against Staphylococcus epidermidis MTCC 435 assessed as growth inhibition at 100 ug/ml by agar well diffusion method; format: functional; settings: read-out: GI
Staphylococcus aureus = assay: Antibacterial activity against Staphylococcus aureus MTCC 96 assessed as growth inhibition at 100 ug/ml by agar well diffusion method; format: functional; settings: read-out: GI
[2] = Protective index, ratio of neurotoxicity in mouse by rotarod test to ED50 for inhibition of maximal electroshock-induced seizures in mouse; format: toxicity, organism-based; settings: in vivo, read-out: PI
[3] = target: Vascular endothelial growth factor receptor 2 (Homo sapiens, UniProt P35968); assay: Inhibition of VEGFR2 (unknown origin)
MCF7 [4] = assay: Antiproliferative activity against human MCF7 cells
[5] = Antiproliferative activity against human HSC3 cells; format: functional, cell-based; settings: HSC-3
[6] = Antiproliferative activity against human Hep3B cells; format: functional, cell-based, Hep 3B2
[7] = Antiproliferative activity against human H460 cells; format: functional, cell-based; settings: NCI-H460
[8] = Antiproliferative activity against human CH27 cells; format: functional, cell-based
M21 = assay: Antiproliferative activity against human M21 cells; format: functional, cell-based
HepG2 = assay: Cytotoxicity against human HepG2 cells assessed as cell viability after 24 hrs by MTT assay; format: functional, cell-based; settings: HepG2, 24 h
[9] = Cytotoxicity against human HCT116 cells assessed as cell viability after 24 hrs by MTT assay; format: functional, cell-based; settings: HCT-116, 24 h
[10] = system: Mycobacterium tuberculosis; assay: Antitubercular activity against Mycobacterium tuberculosis H37Rv assessed as growth inhibition; format: functional
PC-3 [11] = assay: Induction of apoptosis in human PC3 cells at 10 uM after 72 hrs by Hoechst 33258 staining; format: functional
PC-3 [12] = assay: Induction of apoptosis in human PC3 cells at 1 uM after 72 hrs by Hoechst 33258 staining; format: functional
[13] = Antiproliferative activity against human BGC823 cells by MTT assay; format: functional, cell-based; settings: BGC-823
Bcap37 [14] = assay: Antiproliferative activity against human Bcap37 cells by MTT assay; format: functional, cell-based
[15] = Antiproliferative activity against human PC3 cells by MTT assay; format: functional, cell-based; settings: PC-3
[16] = Antiproliferative activity against human BGC823 cells at 10 uM by MTT assay; format: functional; settings: BGC-823
Bcap37 [17] = assay: Antiproliferative activity against human Bcap37 cells at 10 uM by MTT assay; format: functional
[18] = Antiproliferative activity against human PC3 cells at 10 uM by MTT assay; format: functional; settings: PC-3
[19] = Antiproliferative activity against human NCI60 cells; format: functional
RAW264.7 = assay: Antiinflammatory activity in mouse RAW264.7 cells assessed as inhibition of LPS-induced nitric oxide production at 20 ug/ml after 24 hrs by Griess method; format: functional; settings: RAW264.7, 24 h
MCF7 [20] = assay: Antiproliferative activity against human MCF7 cells after 48 hrs by SRB assay; format: functional, cell-based
A549 = assay: Antiproliferative activity against human A549 cells; format: functional, cell-based
[21] = target: Proto-oncogene tyrosine-protein kinase Src (Homo sapiens, UniProt P12931); assay: Inhibition of c-Src (unknown origin)
[22] = Inhibition of alpha-glucosidase (unknown origin); set-up: species or system Homo sapiens
SNB-75 = assay: Growth inhibition of human SNB75 cells after 48 hrs by SRB assay; format: functional; settings: SNB-75, 48 h
[23] = Inhibition of Mycobacterium tuberculosis GlmU
MCF7 [24] = assay: Potency index, ratio of cisplatin IC50 to compound IC50 for human MCF7 cells; format: functional

Sequence of Vascular endothelial growth factor receptor 2 (P35968 whole entry): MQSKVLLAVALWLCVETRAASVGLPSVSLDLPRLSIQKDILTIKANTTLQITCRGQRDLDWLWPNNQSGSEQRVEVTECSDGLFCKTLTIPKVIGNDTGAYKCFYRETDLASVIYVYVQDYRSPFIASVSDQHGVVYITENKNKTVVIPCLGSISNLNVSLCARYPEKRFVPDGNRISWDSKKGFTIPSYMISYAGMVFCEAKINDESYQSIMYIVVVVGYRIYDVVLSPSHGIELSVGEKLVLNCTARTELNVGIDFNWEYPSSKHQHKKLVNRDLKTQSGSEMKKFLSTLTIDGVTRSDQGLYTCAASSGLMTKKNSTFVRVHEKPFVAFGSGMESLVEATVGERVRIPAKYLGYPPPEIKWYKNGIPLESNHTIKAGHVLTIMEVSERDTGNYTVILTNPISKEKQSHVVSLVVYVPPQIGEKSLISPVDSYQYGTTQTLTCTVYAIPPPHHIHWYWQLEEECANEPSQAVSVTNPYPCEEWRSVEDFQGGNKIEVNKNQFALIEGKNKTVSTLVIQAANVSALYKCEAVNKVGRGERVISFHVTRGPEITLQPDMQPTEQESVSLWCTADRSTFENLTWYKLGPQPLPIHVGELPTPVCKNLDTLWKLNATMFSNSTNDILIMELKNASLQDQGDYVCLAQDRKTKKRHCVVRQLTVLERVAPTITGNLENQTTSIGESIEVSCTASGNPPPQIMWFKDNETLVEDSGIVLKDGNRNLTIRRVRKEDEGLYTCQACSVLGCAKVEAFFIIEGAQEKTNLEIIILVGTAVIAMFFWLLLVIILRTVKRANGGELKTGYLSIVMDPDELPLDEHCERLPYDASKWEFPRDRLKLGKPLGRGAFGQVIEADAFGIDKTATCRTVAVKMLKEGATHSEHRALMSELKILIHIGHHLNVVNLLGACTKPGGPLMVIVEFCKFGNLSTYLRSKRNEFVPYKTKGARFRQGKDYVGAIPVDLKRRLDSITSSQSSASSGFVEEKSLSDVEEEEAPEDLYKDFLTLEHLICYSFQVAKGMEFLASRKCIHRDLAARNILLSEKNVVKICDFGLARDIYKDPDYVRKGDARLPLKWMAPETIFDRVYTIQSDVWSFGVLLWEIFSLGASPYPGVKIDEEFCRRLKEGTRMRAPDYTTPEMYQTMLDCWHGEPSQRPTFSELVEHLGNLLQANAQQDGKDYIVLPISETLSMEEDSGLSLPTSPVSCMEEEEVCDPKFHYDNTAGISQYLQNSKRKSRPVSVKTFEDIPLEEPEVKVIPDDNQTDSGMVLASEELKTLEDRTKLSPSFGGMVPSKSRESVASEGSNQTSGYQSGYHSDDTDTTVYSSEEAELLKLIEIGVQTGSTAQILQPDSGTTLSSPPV
Sequence of Proto-oncogene tyrosine-protein kinase Src (P12931 2-536 limits assumed): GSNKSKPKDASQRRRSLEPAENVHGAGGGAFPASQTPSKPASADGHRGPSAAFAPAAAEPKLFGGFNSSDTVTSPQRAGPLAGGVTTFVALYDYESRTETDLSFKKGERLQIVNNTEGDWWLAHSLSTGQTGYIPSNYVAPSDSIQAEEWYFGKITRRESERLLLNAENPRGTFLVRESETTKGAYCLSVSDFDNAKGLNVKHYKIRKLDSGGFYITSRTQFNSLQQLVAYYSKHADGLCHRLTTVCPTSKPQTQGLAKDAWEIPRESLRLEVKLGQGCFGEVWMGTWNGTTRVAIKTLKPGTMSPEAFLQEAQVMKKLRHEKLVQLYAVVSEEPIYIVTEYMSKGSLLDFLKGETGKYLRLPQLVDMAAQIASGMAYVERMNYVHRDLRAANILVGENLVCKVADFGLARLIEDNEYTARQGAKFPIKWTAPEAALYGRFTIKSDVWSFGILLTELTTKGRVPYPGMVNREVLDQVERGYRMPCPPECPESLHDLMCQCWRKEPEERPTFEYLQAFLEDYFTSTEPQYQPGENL

Molecule `CC(=O)NS(=O)(=O)c1ccc(-n2c(C)nc3c(I)cc(I)cc3c2=O)cc1` has an Activity (Rattus norvegicus) of 74%.

In the case of `Cc1nc2c(I)cc(I)cc2c(=O)n1-c1ccc(S(=O)(=O)Nc2ncccn2)cc1`, the inhibition of growth at 100 µg/mL (Escherichia coli) is reported as 61.9%, the inhibition of growth at 100 µg/mL (Pseudomonas aeruginosa) is reported as 61.9% and the inhibition of growth at 100 µg/mL [1] is reported as 61.9%. The inhibition of growth at 100 µg/mL (Staphylococcus aureus) was 61.9%.

In the case of `Nc1nnc2c3ccccc3nc(-c3ccccc3Br)n12`, the selectivity ratio [2] is reported as 5.8.

In the case of `Cc1noc(NS(=O)(=O)c2ccc(-n3c(C)nc4c(I)cc(I)cc4c3=O)cc2)c1C`, the inhibition of growth at 100 µg/mL (Escherichia coli) is reported as 61.9%, the inhibition of growth at 100 µg/mL (Pseudomonas aeruginosa) is reported as 61.9% and the inhibition of growth at 100 µg/mL [1] is reported as 61.9%. It also gave an inhibition of growth at 100 µg/mL (Staphylococcus aureus) of 61.9%.

Molecule `O=C(Nc1ccc(Nc2ccc([N+](=O)[O-])c3ncnc(O)c23)cc1)Nc1ccc(C(F)(F)F)cc1Cl` has an IC50 [3] of 12 nM.

In the case of `O=c1c2cc(Br)cc(Br)c2nc(-c2ccccc2)n1-c1ccc(C2=NN(c3ccccc3)C(Cc3ccccc3)C2)cc1` (centres undefined), the IC50 (MCF7 [4]) is reported as 1.7 µg/mL.

`COc1ccc2nc(-c3ccc4ccccc4c3)[nH]c(=O)c2c1` showed an IC50 [5] of 150 nM, an IC50 [6] of 1940 nM and an IC50 [7] of 70 nM. The IC50 [8] was 90 nM and the IC50 (M21) was 90 nM.

Work on `CSc1nc2n(n1)c1ccccc1c1nnc(-c3ccncc3)n12` yielded an IC50 (HepG2) of 9.34 µg/mL (≈ 28 µM) and an IC50 [9] of 11.5 µg/mL (≈ 34.5 µM).

Work on `Cc1ncc([N+](=O)[O-])n1CCOc1ncnc2ccccc12` yielded an IC50 [3] of 2.72 nM and an IC50 (MCF7 [4]) of 350 nM.

In the case of `NNC(=O)c1ccncc1` [ISONIAZID], the “growth inhibition (GI)” value [10] is reported as 99%.

`COc1cc2nccc(Oc3ccc(NC(=O)Nc4cc(C)on4)c(Cl)c3)c2cc1OC` [TIVOZANIB] gave an IC50 (MCF7 [4]) of 380 nM.

For `COc1cc2ncnc(NCCc3ccccc3F)c2c(OC)c1OC`, the Activity (PC-3 [11]) was 31.8%, the Activity (PC-3 [12]) was 11.6% and the IC50 [13] was 3200 nM. The IC50 (Bcap37 [14]) was 3100 nM, the IC50 [15] was 6200 nM and the inhibition at 10 µM [16] was 88.2%. The inhibition at 10 µM (Bcap37 [17]) was 90.4% and the inhibition at 10 µM [18] was 90.6%.

Molecule `COc1cc2c(=O)n(-c3ccccc3)c(=O)[nH]c2cc1NC(=O)NCCc1ccccc1Cl` has a GI50 [19] of 794 nM.

Molecule `COc1cc2c(=O)n(-c3ccccc3Cl)c(=O)[nH]c2cc1NC(=O)NCCc1ccccc1Cl` has a GI50 [19] of 363 nM.

For `CSc1nc2nc(Cl)c3ccccc3n2n1`, the inhibition at 20 µg/mL (RAW264.7) was 50%.

Work on `O=c1[nH]c(-c2ccc3ccccc3c2)nc2ccc(N3CCCC3)cc12` yielded an IC50 [5] of 40 nM, an IC50 [6] of 1350 nM and an IC50 [7] of 80 nM. For the same molecule, the IC50 [8] was 50 nM and the IC50 (M21) was 30 nM.

Work on `O=C1CCC(=O)N1n1c(COc2ccccc2)nc2ccc(I)cc2c1=O` yielded an IC50 (MCF7 [20]) of 5490 nM.

Work on `O=C(Cc1cccc(Br)c1)Nc1ccc2ncnc(Nc3ccc(Br)cc3)c2c1` yielded an IC50 (A549) of 3420 nM and an IC50 [21] of 27.3 nM.

For `CO[C@H]1/C=C/O[C@@]2(C)Oc3c(C)c(O)c4c(O)c(c(/C=N/N5CCN(C)CC5)c(O)c4c3C2=O)NC(=O)/C(C)=C\C=C\[C@H](C)[C@H](O)[C@@H](C)[C@@H](O)[C@@H](C)[C@H](OC(C)=O)[C@@H]1C` [RIFAMPIN], the “growth inhibition (GI)” value [10] was 99%.

For `O=c1c2cc(-c3c(Cl)cccc3Cl)ccc2nc(C2CC2)n1Cc1cccnc1`, the IC50 [22] was < 10000 nM.

In the case of `O=c1c2ccc(Cl)cc2nc(-c2ccccc2)n1/N=C/c1ccc(Cl)cc1`, the GI50 (SNB-75) is reported as 2570 nM, the CC50 (SNB-75; read-out: pLC50 (the source's name) (converted)) is reported as 39800 nM and the TGI (SNB-75; read-out: pTGI (converted)) is reported as 7590 nM.

With `COc1cc2ncnc(Nc3ccc(NC(=O)c4cccc(O)c4)cc3)c2cc1OC` the IC50 [23] was 74000 nM.

With `CCn1c(=O)c2ccccc2n2nc(SC)nc12` the inhibition at 20 µg/mL (RAW264.7) was 50%.

In the case of `N#Cc1c(F)c(F)c2nc(-c3ccc(C(F)(F)F)cc3)nc(N)c2c1F`, the “Ratio IC50” value (MCF7 [24]) is reported as “<=40”.

Work on `COc1cccc2c1C(=O)c1c(O)c3c(c(O)c1C2=O)C[C@@](O)(C(=O)CO)C[C@@H]3O[C@H]1C[C@H](N)[C@H](O)[C@H](C)O1` [DOXORUBICIN] yielded an IC50 (MCF7 [20]) of 5490 nM.

For `CCOc1nc2nc(SC)nn2c2ccccc12`, the IC50 (HepG2) was 19.2 µg/mL (≈ 73.8 µM) and the IC50 [9] was 17.4 µg/mL (≈ 66.8 µM).

Work on `COc1cc2ncnc(Nc3cccc(Br)c3)c2cc1OC` yielded an IC50 [15] of 8300 nM.
